{"source": "patent US20250313563A1", "about": "“GLYCOGEN SYNTHASE KINASE 3 INHIBITORS AND USES THEREOF” (The Broad Institute, Inc., priority 2022, published 2025)", "key": {"[1]": {"molecular_target": "GSK3α (GST-full length GSK3α) (Homo sapiens (Human), UniProt P49840)", "sequence (P49840 whole entry)": "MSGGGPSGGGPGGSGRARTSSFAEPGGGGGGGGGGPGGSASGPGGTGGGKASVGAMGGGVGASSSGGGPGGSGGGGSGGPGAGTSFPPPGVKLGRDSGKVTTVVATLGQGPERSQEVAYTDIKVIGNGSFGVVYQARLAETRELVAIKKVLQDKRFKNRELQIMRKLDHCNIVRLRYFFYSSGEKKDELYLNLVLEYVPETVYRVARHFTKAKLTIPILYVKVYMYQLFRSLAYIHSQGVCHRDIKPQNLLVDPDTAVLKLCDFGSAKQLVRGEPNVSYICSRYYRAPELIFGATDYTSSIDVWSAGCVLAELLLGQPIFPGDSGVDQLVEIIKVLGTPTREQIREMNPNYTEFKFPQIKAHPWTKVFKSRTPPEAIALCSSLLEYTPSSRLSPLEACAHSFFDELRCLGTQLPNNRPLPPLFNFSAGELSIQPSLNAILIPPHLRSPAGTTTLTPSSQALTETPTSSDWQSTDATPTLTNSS", "test": "GSK3α TR-FRET kinase assay", "type": "biochemical", "method_in_brief": "(§1)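 Compound was preincubated 30 min with 1 nM GST-GSK3 enzyme. Reaction ran 100 min at ambient temperature in Tris pH 7.5/MgCl2 with 200 nM biotinylated pS645-glycogen synthase 631-650 peptide and ATP (4 μM GSK3α, 2 μM GSK3b, or 1 mM). The EDTA-stopped reaction was read by TR-FRET (Tb-anti-pSer641/streptavidin-d2), and IC50s were fitted.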"}, "[2]": {"molecular_target": "GSK3b (GST-full length GSK3b) (Homo sapiens (Human), UniProt P49841)", "sequence (P49841 whole entry)": "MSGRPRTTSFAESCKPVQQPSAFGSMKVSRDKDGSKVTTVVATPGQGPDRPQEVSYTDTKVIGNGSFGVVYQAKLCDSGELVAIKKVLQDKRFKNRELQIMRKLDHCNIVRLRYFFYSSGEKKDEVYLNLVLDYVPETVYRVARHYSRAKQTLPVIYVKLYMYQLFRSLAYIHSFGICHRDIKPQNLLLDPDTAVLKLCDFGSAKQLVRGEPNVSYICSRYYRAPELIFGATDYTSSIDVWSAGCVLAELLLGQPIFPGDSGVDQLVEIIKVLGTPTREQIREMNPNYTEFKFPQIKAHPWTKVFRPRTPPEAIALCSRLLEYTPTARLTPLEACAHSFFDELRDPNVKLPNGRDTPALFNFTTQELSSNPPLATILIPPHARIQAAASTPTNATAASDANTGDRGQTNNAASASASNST", "test": "GSK3b TR-FRET kinase assay", "type": "biochemical", "method_in_brief": "as §1"}, "[3]": {"conditions": "1 nM GSK3α, 4 μM ATP, 30 minute preincubation, geometric mean, read-out: GSK3-A TR-FRET BIOCHEMICAL (TR-FRET), GMean, IC50"}, "[4]": {"conditions": "1 nM GSK3b, 2 μM ATP, 30 minute preincubation, geometric mean, read-out: GSK3-B TR-FRET BIOCHEMICAL (TR-FRET), GMean, IC50"}, "[5]": {"conditions": "1 nM GSK3α, 4 μM ATP, 30 minute preincubation, Table 16, read-out: GSK3-A TR-FRET BIOCHEMICAL (TR-FRET)"}, "[6]": {"conditions": "read-out: GSK3-A (TR-FRET 1 mM ATP), GMean, IC50, 1 mM ATP, geometric mean"}, "[7]": {"conditions": "1 nM GSK3b, 2 μM ATP, 30 minute preincubation, Table 16, read-out: GSK3-B TR-FRET BIOCHEMICAL (TR-FRET)"}, "[8]": {"conditions": "read-out: GSK3-B (TR-FRET 1 mM ATP), GMean, IC50, 1 mM ATP, geometric mean"}, "[9]": {"conditions": "1 nM GSK3α, 4 μM ATP, 30 minute preincubation, read-out: GSK3-A TR-FRET BIOCHEMICAL (TR-FRET), IC50"}, "[10]": {"conditions": "1 nM GSK3b, 2 μM ATP, 30 minute preincubation, read-out: GSK3-B TR-FRET BIOCHEMICAL (TR-FRET), IC50"}}, "note": "Where two headings read alike, the source gives them in different places.", "data": [{"smiles": "CC[C@]1(c2cccc(-c3ccnc4cc(F)ccc34)c2)C2=C(CC(C)(C)NC2=O)Nc2n[nH]cc21", "note": "[Compound 948528]", "values": [{"measurement": "IC50", "setting": "[1]; [3]", "result": "≤ 100", "unit": "nM"}, {"measurement": "IC50", "setting": "[2]; [4]", "result": "100 to 1000", "unit": "nM"}]}, {"smiles": "CCC1(c2cccc(-c3c(F)cncc3OC)c2)C2=C(Nc3n[nH]cc31)C(F)C(C)(C)CC2=O", "note": "(stereo not drawn) [Compound 948545, 4-ethyl-8-fluoro-4-(3-(3-fluoro-5-methoxypyridin-4-yl)phenyl)-7,7-dimethyl-2,4,6,7,8,9-hexahydro-SH-pyrazolo[3,4-b]quinolin-5-one]", "values": [{"measurement": "IC50", "setting": "[1]; [5]", "result": "≤ 100", "unit": "nM"}, {"measurement": "IC50", "setting": "[1]; [6]", "result": "≤ 100", "unit": "nM"}, {"measurement": "IC50", "setting": "[2]; [7]", "result": "≤ 100", "unit": "nM"}, {"measurement": "IC50", "setting": "[2]; [8]", "result": "100 to 1000", "unit": "nM"}]}, {"smiles": "CCC1(c2cccc(-c3c(F)cncc3OC)c2)C2=C(Nc3n[nH]cc31)C(F)C(C)(C)CC2=O", "note": "(stereo not drawn) [Compound 948547, 4-ethyl-8-fluoro-4-(3-(3-fluoro-5-methoxypyridin-4-yl)phenyl)-7,7-dimethyl-2,4,6,7,8,9-hexahydro-SH-pyrazolo[3,4-b]quinolin-5-one]", "values": [{"measurement": "IC50", "setting": "[1]; [5]", "result": "≤ 100", "unit": "nM"}, {"measurement": "IC50", "setting": "[1]; [6]", "result": "100 to 1000", "unit": "nM"}, {"measurement": "IC50", "setting": "[2]; [7]", "result": "≤ 100", "unit": "nM"}, {"measurement": "IC50", "setting": "[2]; [8]", "result": "1000 to 5000", "unit": "nM"}]}, {"smiles": "CCC1(c2cccc(-c3c(F)cncc3OC)c2)C2=C(Nc3n[nH]cc31)C(F)C(C)(C)CC2=O", "note": "(stereo not drawn) [Compound 948548, 4-ethyl-8-fluoro-4-(3-(3-fluoro-5-methoxypyridin-4-yl)phenyl)-7,7-dimethyl-2,4,6,7,8,9-hexahydro-SH-pyrazolo[3,4-b]quinolin-5-one]", "values": [{"measurement": "IC50", "setting": "[1]; [5]", "result": "≤ 100", "unit": "nM"}, {"measurement": "IC50", "setting": "[2]; [7]", "result": "100 to 1000", "unit": "nM"}]}, {"smiles": "CCC1(c2cccc(-c3c(F)cncc3OC)c2)C2=C(CN(Cc3ccccc3)C2=O)Nc2n[nH]cc21", "note": "(stereo not drawn) [Compound 948550]", "values": [{"measurement": "IC50", "setting": "[1]; [9]", "result": "≤ 100", "unit": "nM"}, {"measurement": "IC50", "setting": "[2]; [10]", "result": "100 to 1000", "unit": "nM"}]}, {"smiles": "CCC1(c2cccc(-c3ccnc4c3CCCC4)c2)C2=C(CN(Cc3ccccc3)C2=O)Nc2n[nH]cc21", "note": "(stereo not drawn) [Compound 948551]", "values": [{"measurement": "IC50", "setting": "[1]; [9]", "result": "≤ 100", "unit": "nM"}, {"measurement": "IC50", "setting": "[2]; [10]", "result": "100 to 1000", "unit": "nM"}]}, {"smiles": "CC[C@]1(c2cccc(-c3ccnc4c3CCCC4)c2)C2=C(CN(Cc3ccccc3)C2=O)Nc2n[nH]cc21", "note": "[Compound 948552]", "values": [{"measurement": "IC50", "setting": "[1]; [9]", "result": "100 to 1000", "unit": "nM"}, {"measurement": "IC50", "setting": "[2]; [10]", "result": "> 5000", "unit": "nM"}]}, {"smiles": "CCC1(c2cccc(C(F)(F)C(F)(F)F)c2)C2=C(CC(C)(C)CC2=O)Nc2n[nH]cc21", "note": "(stereo not drawn) [Compound 948615]", "values": [{"measurement": "IC50", "setting": "[1]; [5]", "result": "≤ 100", "unit": "nM"}, {"measurement": "IC50", "setting": "[2]; [7]", "result": "≤ 100", "unit": "nM"}]}, {"smiles": "CCC1(c2cccc(-c3ccnc4cc(F)c(F)cc34)c2)C2=C(CC(C)(C)NC2=O)Nc2n[nH]cc21", "note": "(stereo not drawn) [Compound 948638]", "values": [{"measurement": "IC50", "setting": "[1]; [3]", "result": "> 5000", "unit": "nM"}, {"measurement": "IC50", "setting": "[2]; [4]", "result": "> 5000", "unit": "nM"}]}, {"smiles": "CCc1cnccc1-c1cccc([C@]2(CC)C3=C(CC(C)(C)NC3=O)Nc3n[nH]cc32)c1", "note": "[Compound 948639]", "values": [{"measurement": "IC50", "setting": "[1]; [3]", "result": "≤ 100", "unit": "nM"}, {"measurement": "IC50", "setting": "[2]; [4]", "result": "100 to 1000", "unit": "nM"}]}, {"smiles": "CCC1(c2cccc(-c3ccnc(C)c3)c2)C2=C(CC3(CCCC3)NC2=O)Nc2n[nH]cc21", "note": "(stereo not drawn) [Compound 948641]", "values": [{"measurement": "IC50", "setting": "[1]; [3]", "result": "> 5000", "unit": "nM"}, {"measurement": "IC50", "setting": "[2]; [4]", "result": "> 5000", "unit": "nM"}]}, {"smiles": "CC[C@@]1(c2cccc(-c3ccncc3C3CC3)c2)C2=C(CC(C)(C)NC2=O)Nc2n[nH]cc21", "note": "[Compound 948642]", "values": [{"measurement": "IC50", "setting": "[1]; [3]", "result": "100 to 1000", "unit": "nM"}, {"measurement": "IC50", "setting": "[2]; [4]", "result": "1000 to 5000", "unit": "nM"}]}, {"smiles": "CC[C@@]1(c2cccc(-c3ccncc3OC3CC3)c2)C2=C(CC(C)(C)NC2=O)Nc2n[nH]cc21", "note": "[Compound 948643]", "values": [{"measurement": "IC50", "setting": "[1]; [3]", "result": "> 5000", "unit": "nM"}, {"measurement": "IC50", "setting": "[2]; [4]", "result": "> 5000", "unit": "nM"}]}, {"smiles": "CC[C@@]1(c2cccc(-c3ccnc4cc(Cl)c(C)cc34)c2)C2=C(CC(C)(C)NC2=O)Nc2n[nH]cc21", "note": "[Compound 948645]", "values": [{"measurement": "IC50", "setting": "[1]; [3]", "result": "100 to 1000", "unit": "nM"}, {"measurement": "IC50", "setting": "[2]; [4]", "result": "> 5000", "unit": "nM"}]}, {"smiles": "CC[C@@]1(c2cccc(-c3cc(OC)nc4ccccc34)c2)C2=C(CC(C)(C)NC2=O)Nc2n[nH]cc21", "note": "[Compound 948647]", "values": [{"measurement": "IC50", "setting": "[1]; [3]", "result": "> 5000", "unit": "nM"}, {"measurement": "IC50", "setting": "[2]; [4]", "result": "> 5000", "unit": "nM"}]}, {"smiles": "CCC1(c2cccc(-c3ccncc3C)c2)C2=C(CC3(CCOC3)NC2=O)Nc2n[nH]cc21", "note": "(stereo not drawn) [Compound 948648]", "values": [{"measurement": "IC50", "setting": "[1]; [3]", "result": "> 5000", "unit": "nM"}, {"measurement": "IC50", "setting": "[2]; [4]", "result": "> 5000", "unit": "nM"}]}, {"smiles": "CCC1(c2cccc(-c3ccnc4cc(OC)ccc34)c2)C2=C(CC(C)(C)NC2=O)Nc2n[nH]cc21", "note": "(stereo not drawn) [Compound 948649]", "values": [{"measurement": "IC50", "setting": "[1]; [3]", "result": "> 5000", "unit": "nM"}, {"measurement": "IC50", "setting": "[2]; [4]", "result": "> 5000", "unit": "nM"}]}, {"smiles": "CC[C@@]1(c2cccc(-c3ccnc4c(Cl)cccc34)c2)C2=C(CC(C)(C)NC2=O)Nc2n[nH]cc21", "note": "[Compound 948650]", "values": [{"measurement": "IC50", "setting": "[1]; [3]", "result": "> 5000", "unit": "nM"}, {"measurement": "IC50", "setting": "[2]; [4]", "result": "> 5000", "unit": "nM"}]}, {"smiles": "CCC1(c2cccc(-c3ccnc4ccc(C)cc34)c2)C2=C(CC(C)(C)NC2=O)Nc2n[nH]cc21", "note": "(stereo not drawn) [Compound 948651]", "values": [{"measurement": "IC50", "setting": "[1]; [3]", "result": "> 5000", "unit": "nM"}, {"measurement": "IC50", "setting": "[2]; [4]", "result": "> 5000", "unit": "nM"}]}]}
